In assay [1] the test system is Straub tail induced by morphine sulfate in mice. As to the kind of experiment: Narcotic antagonist test (mouse anti-Straub tail test against morphine). It is filed as in vivo, mouse (female CF1 S). As to conditions: vs 30 mg/kg morphine sulfate i.p. As to the method:
This property is the basis of a mouse test for narcotic antagonists.
Female CF1 S mice (fasted 17-21 hrs.), 5 per dose, were injected orally or subcutaneously with test drug at 0.67, 2, 6, 18, 54 and 162 mg/kg or other appropriate doses in 0.20 ml 1% Methocel® per mouse. Five minutes later, 30 mg/kg of morphine sulfate in 0.20 ml 1% Methocel® per mouse was given intraperitoneally. Starting ten minutes later, the mice were observed continuously for 5 minutes for evidence of Straub tail. Prevention of Straub tail during this observation period was taken as indication of narcotic antagonist ability.

The test system of assay [2] is Straub tail reaction in mice. As to the kind of experiment: Narcotic test (Straub tail reaction). It is filed as in vivo, mouse (CF1 S female). As to conditions: 0.4 h, read-out: EFFECT ED50 Straub-tail (Oral). How it is done:
Narcotic analgesics which have only agonist activity produce in mice an erection and arching of the tail (90° or more) which is referable to spinal cord stimulation. This Straub tail reaction is not produced by other analgesics, including the narcotic antagonists.
The method used was modified from Shemano, I., and Wendel, H., Tox. Appl. Pharm., 6, 334-9 (1964). CF1 S female mice (18-21 g), 10-20 mice per dose, were […] with log scaled doses of analgesic in 1% aqueous methylcellulose. A positive Straub tail response was recorded if a tail was erected 90° or more for 5 seconds at any time within 24 minutes after dosing. A quantal Straub tail ED50 was calculated by the moving average method [Thompson, W. R., Bact. Rev., 11, 115-145 (1947)].

For assay [3], the system named is writhing syndrome induced by phenylquinone in mice. As to the kind of experiment: Analgesic test (phenylquinone writhing, anti-PQW). It is filed as in vivo, mouse (female white mice). The settings on record: mouse; oral; phenylquinone i.p.; read-out: EFFECT ED50 Anti-PQW (Oral). How it is done: A standard procedure for detecting and comparing the analgesic activity of compounds in this series for which there is good correlation with human efficacy is the standard phenylquinone writhing test modified from Siegmund, et al., Proc. Soc. Exp. Biol. Med., 95, 729 (1957). A test compound suspended in 1% Methocel® was given orally to fasted (17-21 hours) female white mice, 5-20 animals per double blind test. Aqueous phenylquinone (0.1% phenyl-p-benzoquinone) was injected intraperitoneally at 24 minutes later using 0.20 ml per mouse. […] The effective analgesic dose for 50% of the mice (ED50) was calculated by the moving average method of Thompson, W. R., Bact. Rev., 11, 115-145 (1947).

Assay [4] has as its system Straub tail induced by morphine in mice. The settings on record: mouse; cited from earlier work.
For assay [5] the following is noted: chronic oral therapy; cited from earlier work.
[6] abbreviates: sc, read-out: EFFECT ED50 Anti-Straub Tail (s.c.).
The mark [7] stands for this setting: mouse, oral, within 24 minutes after dosing.

Molecules are shown by their SMILES. Like-named read-outs stand apart in the source and are kept apart here.

As a reminder, the ED50 is the dose that gives a 50% effect, or the effect in half of the subjects.

As to `COc1ccc2c3c1O[C@H]1C4(CCC5(F)C(C2)N(CC2CC2)CCC315)OCCO4` (stereo partly shown) [Example 1], the 50% effective dose (ED50) in assay [1] (setting [6]) was 1.7 mg/kg; in assay [2] (setting [7]), above 135 mg/kg; in assay [3] it was 42 mg/kg.
As for `COc1ccc2c3c1OC1C(=O)CC[C@@]4(F)[C@@H](C2)N(CC2CC2)CC[C@]314` (stereo partly shown) [Example 2, 17-(Cyclopropylmethyl)-4,5-epoxy-14-fluoro-3-methoxymorphinan-6-one], the 50% effective dose (ED50) is 0.33 mg/kg in assay [1] (setting [6]); above 135 mg/kg in assay [2] (Mus musculus, po); above 135 mg/kg in assay [3].
For the compound `O=C1CC[C@@]2(F)[C@H]3Cc4ccc(O)c5c4[C@@]2(CCN3CC2CC2)C1O5` (stereo partly shown) [Example 3, 17-(Cyclopropylmethyl)-4,5-epoxy-14-fluoro-3-hydroxymorphinan-6-one], the 50% effective dose (ED50) is 0.09 mg/kg in assay [1] (oral, read-out: EFFECT ED50 Anti-Straub Tail (Oral)); 0.01 mg/kg in assay [1] (setting [6]); above 135 mg/kg in assay [2] (Mus musculus, po); above 135 mg/kg in assay [3].
As to `Oc1ccc2c3c1O[C@H]1[C@@H](O)CCC4(F)C(C2)N(CC2CCC2)CCC314` (stereo partly drawn) [Example 6, 17-(Cyclobutylmethyl)-4,5-epoxy-14-fluoro-morphinan-3,6-diol (α-isomer)], the 50% effective dose (ED50) in assay [1] (setting [6]) was 0.41 mg/kg; in assay [2] (setting [7]), above 135 mg/kg; in assay [3] it was 30.4 mg/kg.
Regarding `CN1CC[C@]23c4c5ccc(O)c4OC2C(=O)CC[C@@]3(F)[C@H]1C5` (stereo partly shown) [Example 7, 17-Methyl-14-fluoro-3-hydroxy-4,5-epoxymorphinan-6-one], the 50% effective dose (ED50) was above 81 mg/kg in assay [1] (setting [6]); 18.7 mg/kg in assay [2] (Mus musculus, po); 2.4 mg/kg in assay [3].
Take `COc1ccc2c3c1O[C@H]1C4(CCC5(F)C(C2)N(CC2CCC2)CCC315)OCCO4` (stereo partly shown) [Example 8]: the ED50 is above 135 mg/kg in assay [1] (setting [6]), above 135 mg/kg in assay [2] (setting [7]) and 11.1 mg/kg in assay [3].
Regarding `COc1ccc2c3c1O[C@H]1C(=O)CCC4(F)C(C2)N(CC2CCC2)CCC314` (stereo partly shown) [Example 9], the results for the median effective dose (ED50) in assay [1] (setting [6]), in assay [2] (setting [7]) and in assay [3] were 6 mg/kg, above 135 mg/kg and 27.6 mg/kg, respectively.
On to `COc1ccc2c3c1O[C@H]1C4(CCC5(F)C(C2)N(C)CCC315)OCCO4` (stereo partly shown) [Example 10], for which the ED50 in assay [1] (setting [6]) was above 135 mg/kg; in assay [2] (setting [7]), above 135 mg/kg; in assay [3], 5 mg/kg.
For the compound `COc1ccc2c3c1O[C@H]1C(=O)CCC4(F)C(C2)N(C)CCC314` (stereo partly shown) [Example 11], the median effective dose (ED50) is above 135 mg/kg in assay [1] (setting [6]), 45 mg/kg in assay [2] (setting [7]) and 6.3 mg/kg in assay [3].
`C=CCN1CC[C@]23c4c5ccc(O)c4O[C@H]2C(=O)CC[C@@]3(O)[C@H]1C5` [Naloxone]: the “prevention of Straub tail induced by morphine” value in assay [4] is recorded as “prevent the induction of Straub tail”.
Regarding `C=CCN1CC[C@]23c4c5ccc(O)c4O[C@H]2[C@@H](O)C=C[C@H]3[C@H]1C5` [nalorphine], in assay [4], the “prevention of Straub tail induced by morphine” value is “prevent the induction of Straub tail”.
In the case of `O=C1CC[C@@]2(O)[C@H]3Cc4ccc(O)c5c4[C@@]2(CCN3CC2CC2)[C@H]1O5` [naltrexone], the “abstinence of opiate addicts” value in assay [5] is on record as “remain abstinent”.
